From PubChem BioAssay AID1963870 (Molecular Pharmacology Branch, DTP, NCI, 2024) come the findings set out here.

The subject of the assay is 292921-168-R-J2-PDC KRAS tumor spheroid viability. Briefly: Anticancer human tumor 292921-168-R-J2-PDC patient-derived pancreatic carcinoma cell line growth inhibition [KRAS2]. The conditions noted are these: spheroids with HUVEC and MSC; for viability, T/C: stronger effect = lower value. In short, it runs like this: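 KRAS-mutant tumor cells were grown as spheroids with HUVEC endothelial cells and human MSCs as stroma. Targeted agents were tested alone and with KRAS pathway inhibitors. Doses started at or near clinical Cmax, or 10 microM, descending half-log.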

[1] abbreviates: curve of first compound, second compound 0.1 µM.
[2] abbreviates: curve of first compound, second compound 0.316 µM.
Setting [3] is: curve of first compound, second compound 1 µM.
[4] abbreviates: curve of first compound, second compound 3.16 µM.
Setting [5] is: curve of first compound, second compound 10 µM.
Setting [6] is: second compound 0.1 µM, first compound 0.0316 µM.
The mark [7] stands for this setting: second compound 0.1 µM, first compound 0.1 µM.
The mark [8] stands for this setting: second compound 0.1 µM, first compound 0.316 µM.
Where [9] appears, read: second compound 0.1 µM, first compound 1 µM.
Setting [10] is: second compound 0.1 µM, first compound 3.16 µM.
The mark [11] stands for this setting: second compound 0.316 µM, first compound 0.0316 µM.
[12] abbreviates: second compound 0.316 µM, first compound 0.1 µM.
Setting [13] is: second compound 0.316 µM, first compound 0.316 µM.
[14] abbreviates: second compound 0.316 µM, first compound 1 µM.
The mark [15] stands for this setting: second compound 0.316 µM, first compound 3.16 µM.
The mark [16] stands for this setting: second compound 1 µM, first compound 0.0316 µM.
[17] abbreviates: second compound 1 µM, first compound 0.1 µM.
Setting [18] is: second compound 1 µM, first compound 0.316 µM.
Setting [19] is: second compound 1 µM, first compound 1 µM.
[20] abbreviates: second compound 1 µM, first compound 3.16 µM.
Where [21] appears, read: second compound 3.16 µM, first compound 0.0316 µM.
Where [22] appears, read: second compound 3.16 µM, first compound 0.1 µM.
[23] abbreviates: second compound 3.16 µM, first compound 0.316 µM.
Where [24] appears, read: second compound 3.16 µM, first compound 1 µM.
[25] abbreviates: second compound 3.16 µM, first compound 3.16 µM.
Where [26] appears, read: second compound 10 µM, first compound 0.0316 µM.
Where [27] appears, read: second compound 10 µM, first compound 0.1 µM.
[28] abbreviates: second compound 10 µM, first compound 0.316 µM.
Where [29] appears, read: second compound 10 µM, first compound 1 µM.
Setting [30] is: second compound 10 µM, first compound 3.16 µM.
[31] abbreviates: second compound 0.1 µM, first compound 0.01 µM.
Setting [32] is: second compound 0.316 µM, first compound 0.01 µM.
[33] abbreviates: second compound 1 µM, first compound 0.01 µM.
Setting [34] is: second compound 3.16 µM, first compound 0.01 µM.
Where [35] appears, read: second compound 10 µM, first compound 0.01 µM.
[36] abbreviates: compound alone, run of 08/26/2021.
[37] abbreviates: compound alone, run of 09/02/2021.

Some results are limits rather than exact numbers.
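Also: drug exposure lasted seven days after spheroids formed for three days.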
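For viability, T/C in this document: percent of DMSO vehicle control viability which is 100%.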

The term IC50 denotes the concentration at which inhibition is half-maximal. As usually defined, the viability, T/C is the result in the treated group divided by that in the control group, in per cent. Turning to `CCNC(=O)CC1N=C(c2ccc(Cl)cc2)c2cc(OC)ccc2-n2c(C)nnc21` (stereo not drawn) + C=CC(=O)N1CCN(c2nc(=O)n(-c3c(C)ccnc3C(C)C)c3nc(-c4c(O)cccc4F)c(F)cc23)C(C)C1, the IC50 is, setting by setting: under setting [1], 6090 nM; under setting [2], 6080 nM; under setting [3], 4240 nM; under setting [4], 530 nM; under setting [5], less than 31.6 nM. The viability, T/C runs as follows: under setting [6], 111%; under setting [7], 104%; under setting [8], 77.2%; under setting [9], 63.1%; under setting [10], 60.7%; (second compound 0.1 µM, first compound 10 µM) 43.4%. The viability, T/C is 117% under setting [11]; 103% under setting [12]; 81.1% under setting [13]; 68.8% under setting [14]; 63% under setting [15]; 41.5% (second compound 0.316 µM, first compound 10 µM). Besides, the viability, T/C was 109% under setting [16]; 97% under setting [17]; 77.6% under setting [18]; 65.4% under setting [19]; 54.8% under setting [20]; 40.7% (second compound 1 µM, first compound 10 µM). Further, the viability, T/C was 78.2% under setting [21]; 69.1% under setting [22]; 53.1% under setting [23]; 43.8% under setting [24]; 35.6% under setting [25]; 26.4% (second compound 3.16 µM, first compound 10 µM). The viability, T/C under setting [26] is 29.1%; the viability, T/C under setting [27] is 26.2%; the viability, T/C under setting [28] was 23.8%; the viability, T/C under setting [29] is 16.8%; the viability, T/C under setting [30] is 9.64%; the viability, T/C (second compound 10 µM, first compound 10 µM) was 6.83%.

Consider `CC(=O)OC12COC1CC(O)C1(C)C(=O)C(O)C3=C(C)C(OC(=O)C(O)C(NC(=O)OC(C)(C)C)c4ccccc4)CC(O)(C(OC(=O)c4ccccc4)C21)C3(C)C` (stereo not drawn) + CNCc1ccccc1-c1csc(C(C)Nc2nc(C)nc3cc(OC)c(OC)cc23)c1, for which the IC50 is less than 10 nM under setting [1]; less than 10 nM under setting [2]; less than 10 nM under setting [3]; less than 10 nM under setting [4]; less than 10 nM under setting [5]. Also, the viability, T/C reads like this: under setting [31], 13.9%; under setting [6], 15.9%; under setting [7], 13.8%; under setting [8], 14.6%; under setting [9], 17.2%; under setting [10], 18.1%. Moreover, the viability, T/C is 15.8% under setting [32]; 14.4% under setting [11]; 13% under setting [12]; 13% under setting [13]; 15.7% under setting [14]; 17.5% under setting [15]. Further, the viability, T/C is, setting by setting: under setting [33], 16.5%; under setting [16], 15%; under setting [17], 11.5%; under setting [18], 12.3%; under setting [19], 17.4%; under setting [20], 22.8%. Besides, the viability, T/C was 0.1% under setting [34]; 16.1% under setting [21]; 0.07% under setting [22]; 0.03% under setting [23]; 0.08% under setting [24]; 19.4% under setting [25]. For the same compound, the viability, T/C is 0.14% under setting [35]; 0.09% under setting [26]; 0.06% under setting [27]; 0.04% under setting [28]; 0.08% under setting [29]; 0.17% under setting [30].

Take `CC1OCC2(CCN(c3cnc(Sc4ccnc(N)c4Cl)c(N)n3)CC2)C1N` (stereo not drawn): under “compound 0.0316 µM”, the viability, T/C is 86.4% [middle of 4 runs]. Moreover, the IC50 runs as follows: under setting [36], 696 nM [middle of 5 runs]; under setting [37], 524 nM [middle of 5 runs]; (curve of compound) 619 nM [middle of 5 runs].

As to `COC(=O)c1ccc2c(C(=Nc3ccc(N(C)C(=O)CN4CCN(C)CC4)cc3)c3ccccc3)c(O)[nH]c2c1`, the viability, T/C runs as follows: (compound 3.16 µM) 6.78% [middle of 5 runs]; (compound 10 µM) 0.34% [middle of 5 runs].

As for `CC(=O)OC12COC1CC(O)C1(C)C(=O)C(O)C3=C(C)C(OC(=O)C(O)C(NC(=O)OC(C)(C)C)c4ccccc4)CC(O)(C(OC(=O)c4ccccc4)C21)C3(C)C` (stereo not drawn) + COc1cc2nc(C)nc(NC(C)c3cc(N)cc(C(F)(F)F)c3)c2cc1OC1CCOC1, the IC50 by setting is: under setting [1], less than 10 nM; under setting [2], less than 10 nM; under setting [3], less than 10 nM; under setting [4], less than 10 nM; under setting [5], less than 10 nM. The viability, T/C was 13.7% under setting [31]; 15.2% under setting [6]; 10.7% under setting [7]; 12.1% under setting [8]; 14% under setting [9]; 19% under setting [10]. The viability, T/C is, setting by setting: under setting [32], 13.7%; under setting [11], 14.7%; under setting [12], 10.9%; under setting [13], 12.6%; under setting [14], 14.7%; under setting [15], 18.8%. The viability, T/C under setting [33] was 13.3%; the viability, T/C under setting [16] is 16.2%; the viability, T/C under setting [17] was 13.6%; the viability, T/C under setting [18] is 10.9%; the viability, T/C under setting [19] is 16.1%; the viability, T/C under setting [20] was 18.9%. The viability, T/C under setting [34] is 12.1%; the viability, T/C under setting [21] is 13.4%; the viability, T/C under setting [22] is 11.2%; the viability, T/C under setting [23] was 11.4%; the viability, T/C under setting [24] is 14.1%; the viability, T/C under setting [25] is 18.7%. Also, the viability, T/C under setting [35] was 13.5%; the viability, T/C under setting [26] is 13.3%; the viability, T/C under setting [27] was 14%; the viability, T/C under setting [28] was 12.8%; the viability, T/C under setting [29] was 11.9%; the viability, T/C under setting [30] was 13.2%.

In the case of `C=CC(=O)N1CCN(c2nc(=O)n(-c3c(C)ccnc3C(C)C)c3nc(-c4c(O)cccc4F)c(F)cc23)C(C)C1` (stereo not drawn), the IC50 was 5.55 µM [middle of 5 runs] under setting [36] and 5.47 µM [middle of 6 runs] under setting [37].
